Measurements published in PMC7497641, “Neurotropic activity and safety of methylene-cycloalkylacetate (MCA) derivative 3-(3-allyl-2-methylenecyclohexyl) propanoic acid” (ACS Chemical Neuroscience, 2020).

Experiments:
[1] = test system: PC12 dopaminergic cell cultures; assay: PC12 neurotropic (neurite outgrowth) assay; format: cell-based, rat
[2] = biological target: Nuclear Hormone Androgen Receptor (AR) (Homo sapiens, UniProt P10275); assay: SAFETYscan Nuclear Hormone Receptor assay; format: cell-based
Sequence of Nuclear Hormone Androgen Receptor (AR) (P10275 whole entry): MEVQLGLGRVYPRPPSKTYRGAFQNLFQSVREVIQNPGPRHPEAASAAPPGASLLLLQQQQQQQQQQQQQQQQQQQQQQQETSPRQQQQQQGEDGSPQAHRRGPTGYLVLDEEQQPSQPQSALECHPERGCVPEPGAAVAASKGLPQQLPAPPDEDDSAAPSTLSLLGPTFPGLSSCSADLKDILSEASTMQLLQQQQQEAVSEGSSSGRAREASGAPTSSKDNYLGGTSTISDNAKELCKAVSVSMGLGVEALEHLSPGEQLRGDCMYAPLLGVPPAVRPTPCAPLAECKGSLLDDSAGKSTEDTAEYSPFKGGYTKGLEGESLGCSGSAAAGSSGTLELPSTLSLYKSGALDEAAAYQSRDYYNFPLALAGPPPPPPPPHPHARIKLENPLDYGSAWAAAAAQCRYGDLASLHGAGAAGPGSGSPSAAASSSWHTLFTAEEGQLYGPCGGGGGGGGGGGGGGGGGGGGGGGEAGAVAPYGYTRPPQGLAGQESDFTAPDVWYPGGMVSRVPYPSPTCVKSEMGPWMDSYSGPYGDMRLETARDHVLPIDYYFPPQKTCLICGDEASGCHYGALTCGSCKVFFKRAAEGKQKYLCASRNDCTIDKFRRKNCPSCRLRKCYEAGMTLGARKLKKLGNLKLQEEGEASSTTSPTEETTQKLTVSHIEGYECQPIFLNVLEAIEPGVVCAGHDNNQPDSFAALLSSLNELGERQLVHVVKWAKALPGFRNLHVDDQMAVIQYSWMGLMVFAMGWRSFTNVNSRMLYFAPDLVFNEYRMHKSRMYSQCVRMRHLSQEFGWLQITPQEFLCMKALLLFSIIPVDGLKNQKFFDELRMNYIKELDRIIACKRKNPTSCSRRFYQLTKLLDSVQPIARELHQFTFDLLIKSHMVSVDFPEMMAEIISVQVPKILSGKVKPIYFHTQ

[3] = biological target: T1, Opioid Receptor Delta 1 (OPRD1) (Homo sapiens, UniProt P41143); assay: SAFETYscan GPCR cAMP; format: cell-based
T1 construct: host or cells: cAMP Hunter cell lines
T1 sequence (P41143 whole entry): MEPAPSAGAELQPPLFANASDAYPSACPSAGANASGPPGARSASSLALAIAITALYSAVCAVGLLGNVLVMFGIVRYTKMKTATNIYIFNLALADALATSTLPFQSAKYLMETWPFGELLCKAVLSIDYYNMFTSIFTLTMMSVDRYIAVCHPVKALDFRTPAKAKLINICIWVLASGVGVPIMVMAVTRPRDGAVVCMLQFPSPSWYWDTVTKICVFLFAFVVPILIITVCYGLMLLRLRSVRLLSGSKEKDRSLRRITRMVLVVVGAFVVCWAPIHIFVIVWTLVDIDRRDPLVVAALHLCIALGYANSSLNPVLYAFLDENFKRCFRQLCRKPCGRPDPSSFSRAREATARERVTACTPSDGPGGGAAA

[4] = biological target: T2, Cannabinoid Receptor 1 (CNR1) (Homo sapiens, UniProt P21554); assay: SAFETYscan GPCR cAMP; format: cell-based
T2 construct: host or cells: cAMP Hunter cell lines
T2 sequence (P21554 whole entry): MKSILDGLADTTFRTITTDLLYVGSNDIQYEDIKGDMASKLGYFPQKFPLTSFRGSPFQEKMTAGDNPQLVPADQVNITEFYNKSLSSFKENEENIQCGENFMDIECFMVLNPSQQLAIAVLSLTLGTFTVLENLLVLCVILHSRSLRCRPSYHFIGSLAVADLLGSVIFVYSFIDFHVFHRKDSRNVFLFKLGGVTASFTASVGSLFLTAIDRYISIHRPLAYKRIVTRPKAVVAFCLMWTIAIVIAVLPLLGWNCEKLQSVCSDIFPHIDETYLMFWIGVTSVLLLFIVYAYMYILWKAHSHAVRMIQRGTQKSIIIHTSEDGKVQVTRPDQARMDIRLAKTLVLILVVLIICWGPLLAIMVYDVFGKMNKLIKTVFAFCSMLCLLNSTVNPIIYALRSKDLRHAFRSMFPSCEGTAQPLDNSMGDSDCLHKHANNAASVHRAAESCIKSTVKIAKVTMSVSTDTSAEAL

[5] = biological target: T3, Dopamine Receptor D2 (DRD2S) (Homo sapiens, UniProt P14416); assay: SAFETYscan GPCR cAMP; format: cell-based
T3 construct: host or cells: cAMP Hunter cell lines
T3 sequence (P14416 1-414 isoform P14416-2): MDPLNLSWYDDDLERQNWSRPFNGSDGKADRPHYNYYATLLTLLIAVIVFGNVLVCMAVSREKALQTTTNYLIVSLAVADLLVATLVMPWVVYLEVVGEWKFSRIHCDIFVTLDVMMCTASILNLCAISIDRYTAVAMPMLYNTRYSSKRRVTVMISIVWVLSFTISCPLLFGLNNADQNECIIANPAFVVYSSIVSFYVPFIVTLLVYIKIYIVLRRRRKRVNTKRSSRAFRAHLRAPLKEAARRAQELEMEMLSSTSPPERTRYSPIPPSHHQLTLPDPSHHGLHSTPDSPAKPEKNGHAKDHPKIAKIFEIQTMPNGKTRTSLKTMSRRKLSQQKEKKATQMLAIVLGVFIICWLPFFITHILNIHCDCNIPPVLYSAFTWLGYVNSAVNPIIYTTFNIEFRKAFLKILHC

[6] = biological target: T4, Cannabinoid Receptor 2 (CNR2) (Homo sapiens, UniProt P34972); assay: SAFETYscan GPCR cAMP; format: cell-based
T4 construct: host or cells: cAMP Hunter cell lines
T4 sequence (P34972 whole entry): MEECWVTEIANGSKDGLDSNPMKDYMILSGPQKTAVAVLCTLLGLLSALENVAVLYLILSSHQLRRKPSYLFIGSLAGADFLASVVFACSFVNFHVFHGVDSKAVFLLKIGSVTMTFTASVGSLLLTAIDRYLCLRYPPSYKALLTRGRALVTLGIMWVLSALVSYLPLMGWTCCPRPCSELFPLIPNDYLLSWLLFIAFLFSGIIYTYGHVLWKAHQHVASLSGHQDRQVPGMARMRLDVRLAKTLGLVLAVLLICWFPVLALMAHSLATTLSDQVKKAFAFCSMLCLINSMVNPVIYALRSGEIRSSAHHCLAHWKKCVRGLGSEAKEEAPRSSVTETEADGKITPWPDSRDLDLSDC

[7] = test system: neurons; assay: Cytotoxicity to neurons; format: cell-based; settings: 10 μM
Excerpt: “Off-target” activity refers to all other targets for which a molecule has affinity with the outcome of activation, blockade, or modulation, resulting in a functional effect. In many cases, the off-target activity of the molecule can be sub-clinical and not pose a concern. On the other hand, the off-target activity may result in side effects of the active agent that range from a minor nuisance to a severe adverse event, resulting with drug withdrawal.[33] Therefore, in vitro pharmacological profiling is increasingly being used earlier in the drug discovery process to identify undesirable off-target activity profiles that could hinder or halt the development of a candidate drug.[34] With this background, assessing the specificity of HU-MCA-13 early in its development using highly relevant and predictive functional assays, which allow more informed decisions about its safety, ultimately lead to the development of an effective neurotropic drug. […] Cell death was evaluated by morphological appearance of the cells and release of LDH into the medium, in the absence and presence of different concentrations of synthetic compounds as previously described.[52]

[8] = biological target: T5, Monoamine oxidase type A (MAOA) (Homo sapiens, UniProt P21397); assay: SAFETYscan Enzymatic assay; format: biochemical; settings: Inhibitor
T5 construct: purchased Sigma-Aldrich-Merck
T5 sequence (P21397 whole entry): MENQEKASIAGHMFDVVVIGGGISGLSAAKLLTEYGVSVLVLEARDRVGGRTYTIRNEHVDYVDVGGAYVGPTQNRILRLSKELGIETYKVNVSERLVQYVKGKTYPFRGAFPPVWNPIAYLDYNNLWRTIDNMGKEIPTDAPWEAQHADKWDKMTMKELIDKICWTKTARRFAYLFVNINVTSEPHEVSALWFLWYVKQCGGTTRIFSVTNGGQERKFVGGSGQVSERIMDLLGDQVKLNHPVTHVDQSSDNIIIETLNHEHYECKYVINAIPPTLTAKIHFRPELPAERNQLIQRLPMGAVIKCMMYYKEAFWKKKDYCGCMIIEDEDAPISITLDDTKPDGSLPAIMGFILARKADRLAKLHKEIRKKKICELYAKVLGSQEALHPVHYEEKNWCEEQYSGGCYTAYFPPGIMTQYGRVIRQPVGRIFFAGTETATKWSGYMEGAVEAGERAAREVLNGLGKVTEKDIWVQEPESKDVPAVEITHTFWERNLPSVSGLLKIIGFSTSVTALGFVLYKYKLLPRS

[9] = biological target: T6, Opioid Receptor Mu 1 (OPRM1) (Homo sapiens, UniProt P35372); assay: cell-based; settings: cAMP, read-out: RC50 (the source's name)
T6 construct: host or cells: cAMP Hunter cell lines
T6 sequence (P35372 whole entry): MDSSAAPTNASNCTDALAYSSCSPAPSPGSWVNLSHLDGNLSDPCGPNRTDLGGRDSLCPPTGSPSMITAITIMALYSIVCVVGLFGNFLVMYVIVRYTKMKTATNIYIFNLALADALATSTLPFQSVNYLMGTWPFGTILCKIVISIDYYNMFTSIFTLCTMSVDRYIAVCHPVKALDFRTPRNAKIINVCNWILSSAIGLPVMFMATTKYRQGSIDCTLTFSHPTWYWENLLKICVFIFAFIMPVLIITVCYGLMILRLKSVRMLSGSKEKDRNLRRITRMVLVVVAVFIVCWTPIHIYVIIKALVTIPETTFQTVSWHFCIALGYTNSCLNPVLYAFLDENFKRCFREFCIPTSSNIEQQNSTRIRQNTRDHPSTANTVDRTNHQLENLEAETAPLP

[10] = biological target: A tetrodotoxin-resistant voltage-gated sodium channel (NAVI1.5) (Homo sapiens, UniProt Q14524); assay: cell-based
[11] = biological target: Histamine Receptor H1 (HRH1) (Homo sapiens, UniProt P35367); assay: SAFETYscan GPCR Calcium Flux; format: cell-based; settings: read-out: RC50 (the source's name)
Sequence of Histamine Receptor H1 (HRH1) (P35367 whole entry): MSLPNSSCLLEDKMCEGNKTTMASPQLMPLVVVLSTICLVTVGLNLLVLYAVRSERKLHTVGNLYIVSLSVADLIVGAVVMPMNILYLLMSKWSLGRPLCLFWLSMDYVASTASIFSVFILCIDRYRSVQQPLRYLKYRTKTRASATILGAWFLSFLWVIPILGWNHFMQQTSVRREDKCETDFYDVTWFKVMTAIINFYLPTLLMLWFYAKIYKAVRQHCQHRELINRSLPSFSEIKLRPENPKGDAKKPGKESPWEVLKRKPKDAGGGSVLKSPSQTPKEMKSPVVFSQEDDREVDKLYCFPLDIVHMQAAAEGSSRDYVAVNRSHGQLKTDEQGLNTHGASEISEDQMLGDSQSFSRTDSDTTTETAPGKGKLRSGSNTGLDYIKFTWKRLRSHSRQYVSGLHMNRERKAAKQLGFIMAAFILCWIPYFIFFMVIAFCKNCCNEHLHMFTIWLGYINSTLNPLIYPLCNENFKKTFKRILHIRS

[12] = biological target: Adrenergic Receptor α1A (ADRA1A) (Homo sapiens, UniProt P35348); assay: SAFETYscan GPCR Calcium Flux; format: cell-based
Sequence of Adrenergic Receptor α1A (ADRA1A) (P35348 whole entry): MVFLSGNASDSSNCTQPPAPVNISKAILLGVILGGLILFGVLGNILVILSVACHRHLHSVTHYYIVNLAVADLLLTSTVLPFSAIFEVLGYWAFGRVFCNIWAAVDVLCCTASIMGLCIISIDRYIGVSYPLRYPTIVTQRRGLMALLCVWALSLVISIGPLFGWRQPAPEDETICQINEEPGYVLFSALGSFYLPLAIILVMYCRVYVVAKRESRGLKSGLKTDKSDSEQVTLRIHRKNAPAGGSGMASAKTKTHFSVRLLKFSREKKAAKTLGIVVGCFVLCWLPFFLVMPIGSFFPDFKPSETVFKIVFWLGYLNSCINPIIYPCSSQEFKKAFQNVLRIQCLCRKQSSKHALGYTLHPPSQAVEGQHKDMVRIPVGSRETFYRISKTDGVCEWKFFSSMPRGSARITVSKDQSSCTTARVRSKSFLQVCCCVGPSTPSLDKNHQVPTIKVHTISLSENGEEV

[13] = biological target: T7, cGMP-inhibited cyclic nucleotide phospho-diesterase 3A (PDE3A) (Homo sapiens, UniProt Q14432); assay: SAFETYscan Enzymatic assay; format: biochemical; settings: Inhibitor
T7 construct: purchased Signal Chem

[14] = biological target: 5-Hydroxy tryptamine (Serotonin) Receptor 2B (HTR2B) (Homo sapiens, UniProt P41595); assay: SAFETYscan GPCR Calcium Flux; format: cell-based
Sequence of 5-Hydroxy tryptamine (Serotonin) Receptor 2B (HTR2B) (P41595 whole entry): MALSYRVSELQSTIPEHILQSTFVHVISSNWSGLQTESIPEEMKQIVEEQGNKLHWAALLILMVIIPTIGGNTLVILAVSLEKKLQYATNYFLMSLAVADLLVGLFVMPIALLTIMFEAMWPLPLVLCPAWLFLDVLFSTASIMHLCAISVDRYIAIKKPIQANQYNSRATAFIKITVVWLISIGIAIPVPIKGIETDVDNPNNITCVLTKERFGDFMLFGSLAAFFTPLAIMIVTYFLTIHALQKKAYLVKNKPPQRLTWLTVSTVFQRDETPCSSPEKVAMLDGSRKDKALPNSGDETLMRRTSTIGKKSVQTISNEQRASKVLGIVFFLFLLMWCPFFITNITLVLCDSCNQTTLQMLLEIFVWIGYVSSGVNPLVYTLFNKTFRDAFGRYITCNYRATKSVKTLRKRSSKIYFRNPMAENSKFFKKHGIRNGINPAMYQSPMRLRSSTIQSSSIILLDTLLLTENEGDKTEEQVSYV

[15] = 10 μM, read-out: MCA-13 Max. Responce
[16] = read-out: RC50 (the source's name)

C=CCC1CCCC(CCC(=O)O)C1=C (stereo not shown) [HU-MCA-13, 3-(3-allyl-2-methylenecyclohexyl)propanoic acid]
10–15%: neurite outgrowth ([1]; HU-MCA-13 1 μM)
did not abolished: neurotropic effect in the presence of Trk A inhibitor K252a ([1]; 250 nM K252a, 10 μM HU-MCA-13)
3.21%: inhibition at 10 µM [13, 15]
not toxic: toxicity to neurons [7]
expressed β tubulin III: β tubulin III expression in cell bodies and neurite outgrowths (immunostaining) ([1]; 5 μM, 7 days)
> 10 µM: EC50 [2] | IC50 [2] | EC50 [3] | IC50 [3] | EC50 [4] | IC50 [4] | EC50 [5] | IC50 [5] | EC50 [6] | IC50 [6] | IC50 [8, 16] | EC50 ([9]; Agonist) | IC50 ([9]; Antagonist) | IC50 [10] | EC50 ([11]; Agonist) | IC50 ([11]; Antagonist) | EC50 [12] | IC50 [12] | IC50 [13, 16] | EC50 [14] | IC50 [14]
0.04: neurite outgrowth, Df ([1]; HU-MCA-13 1 μM)
1.86%: inhibition at 10 µM [8, 15]
